The structures appear in SMILES notation. “Also recorded” adds a separate entry of the source. Where two headings read alike, the source gives them in different places.

In data set [1] the target is T1, Z. mobilis TGT (Zymomonas mobilis subsp. mobilis, UniProt P28720).
T1 construct: Strep-tag II (N, cleaved yes); made in house; host or cells: Escherichia coli
The data set is described as follows: TGT-catalyzed incorporation of radio-labeled guanine into tRNA (inhibition constants). It counts as biochemical. On the procedure: The inhibition constants (Ki) of ligands 1 to 9, which are listed in Fig 2, were determined previously (except that of 4, which was determined in this study)[19, 20, 23, 26] via a well-established assay monitoring the TGT-catalyzed incorporation of radio-labeled guanine into tRNA. […] This substituent addresses the ribose-33/uracil-33 pocket by forming an H-bond to the main chain carbonyl of Ala232 (Fig 1 and S3 and S4 Figs).
The concentration of Z. mobilis TGT amounted to 9 nM, [8-^3H]-guanine was used at a (saturating) concentration of 10 μM and tRNA^Tyr at a concentration of 1.5 μM. Aliquots of 15 μL were withdrawn for scintillation counting every 60 minutes (in total four).
The Ki value was averaged over three measurements. The preparation of E.coli tRNA^Tyr (ECYC2) via in vitro transcription was carried out using the RiboMAX™ Large Scale RNA Production System-T7 (Promega) according to the vendor´s protocol.

In data set [2] the target is T1, Z. mobilis TGT. Also noted: method as in PMID 24955548. Particulars: cited from earlier work.
Data set [3] deals with T1, Z. mobilis TGT. Particulars: cited from earlier work.
Data set [4] deals with T2, TGT homodimer.
T2 construct: Strep-tag II (N, cleaved yes); made in house; host or cells: Escherichia coli
The data set is described as follows: Native ESI-MS of TGT:ligand 1:10 mixtures (dimer destabilization). Also noted: species or system Zymomonas mobilis. Particulars: for Relative proportion of TGT monomers: 2.5 µM TGT and 25 µM inhibitor (1:10), 1 M NH4Ac pH 7.5, without ligand 3.3 ± 0.7 %; for effect on TGT dimer stability / monomer proportion, in words: compared to measurements in the absence of any ligand, TGT:ligand 1:10. On the procedure:
In order to gain insights into the dimer disturbing potential seen in the crystal structures with the different ligands and to collect evidence for such a behavior also present in solution, native ESI-MS was performed. This technique enables to monitor the oligomerization state of TGT at equilibrium under non-denaturing conditions, in the absence or presence of saturating ligand concentrations. […] To ensure reliability, these comparative experiments were thus carried out adhering to strictly similar conditions (see Materials and methods).
Relative proportions of TGT-monomer signals extracted from individual 1:10 TGT:ligand mixtures (TGT monomer 2.5 μM) were quantified (S7 Fig, S1 Table) and normalized with respect to this value in the absence of any inhibitor.
Nano-ESI-MS analyses were performed as already described in the literature. Briefly, WT-TGT samples were exchanged twice against a 1 M ammonium acetate pH 7.5 buffer using microcentrifuge gel-filtration columns (Zeba 0.5 mL, Thermo Scientific). Next, protein concentration was determined spectrophotometrically at 280 nm (Nano-Drop 2000 spectrophotometer, Thermo Scientific).
Native MS experiments were carried out on a hybrid Q-TOF mass spectrometer (Synapt G2 HDMS, Waters) equipped with an automated chip-based nanoESI source (Triversa Nanomate, Advion Biosciences) operating in the positive ion mode. External calibrations were generated from the multiple charged ions produced by a 2 μM horse heart myoglobin solution diluted in a 1:1 (v/v) water: acetonitrile mixture acidified with 1% (v/v) formic acid (denaturing MS) and singly charged cesium iodide clusters diluted to 2 g∙L^-1 in a 1:1 (v/v) water: isopropanol solution (native MS).
Titration experiments in native conditions (1 M NH4Ac pH 7.5) were next triggered by mixing 2.5 μM TGT monomers with 25 μM of each ligand separately (ratio 1:10). The final DMSO concentration of each mixture never exceeded 0.25% (v/v). Non-covalent TGT dimers and TGT-ligand complexes were preserved in the gas phase according fine-tuned instrumental parameters, improving ion desolvation and transmission while maintaining intact structures (Vc = 80V, Pi = 6 mbar).
Relative quantification of TGT monomers was performed from charge states peak intensities of both monomeric (10 to 14+) and dimeric complexes (15 to 20+), using MassLynx 4.1 (Waters). TGT dimer disruption was determined for each ligand through their destabilization factor (Fig 8) which corresponds to their associated ratio of TGT monomers normalized from the apo-condition (S7 Fig; S1 Table). Standard deviations are calculated here from analytical triplicates. For the sake of reliability and comparability, all these experiments were performed within the same day, from identical experimental and instrumental conditions using the same buffer exchanged TGT batch (frozen and thawed only once).

Data set [5] is described as follows: Ligand dilution in native MS buffer (precipitation). It counts as physicochemical. As to conditions: 1 M NH4Ac pH 7.5.
[6] abbreviates: ionization corrected, data for 1 determined previously.

T1 sequence (P28720 whole entry): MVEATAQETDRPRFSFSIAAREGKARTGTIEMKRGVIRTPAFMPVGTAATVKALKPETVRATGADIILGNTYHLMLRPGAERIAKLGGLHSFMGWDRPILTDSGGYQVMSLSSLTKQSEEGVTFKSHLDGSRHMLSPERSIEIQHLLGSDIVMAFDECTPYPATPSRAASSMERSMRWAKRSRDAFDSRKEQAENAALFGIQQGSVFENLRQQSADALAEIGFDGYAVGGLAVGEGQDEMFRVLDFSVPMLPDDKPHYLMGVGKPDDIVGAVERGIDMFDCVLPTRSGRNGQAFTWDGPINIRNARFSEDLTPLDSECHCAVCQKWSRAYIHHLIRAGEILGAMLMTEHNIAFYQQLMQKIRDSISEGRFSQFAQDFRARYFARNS

By Kd is commonly meant the equilibrium constant for the complex coming apart. The Ki is the dissociation constant of the complex between target and ligand, obtained from inhibition or displacement. Consider `CNc1nc2cc3nc(N)[nH]c(=O)c3cc2[nH]1` [Inhibitor 1], for which the “factor by which 1 is more potent than 3” value in data set [1] (radio-labeled assay, Ki ratio 1 vs 3) amounted to 6. In data set [2] (HEPES buffer), the “-TΔS^0” value is listed as 34.2 ± 1.9^29 kJ∙mol^-1 and the “ΔH^0obs” value is -74.8 ± 1.8^29 kJ∙mol^-1. Moreover, the Kd in data set [2] (ITC, 298 K) was 52 ± 7 nM. In addition, the “ΔG^0” value in data set [2] (ITC) is -41.6 ± 0.3^29 kJ∙mol^-1. Also, in data set [2] (TRIS buffer), the “-TΔS^0” value is 9.3 ± 0.9^29 kJ∙mol^-1 and the “ΔH^0obs” value is reported as -50.9 ± 0.9^29 kJ∙mol^-1. In data set [2] (Tricin buffer), the “-TΔS^0” value is on record as 25.1 ± 0.3^29 kJ∙mol^-1 and the “ΔH^0obs” value is on record as -66.7 ± 0.1^29 kJ∙mol^-1. Also, in data set [2] (setting [6]), the “-TΔS^0” value was 52.0 kJ/mol and the “ΔH^0bind” value is -93.6 kJ/mol. Besides, the “protons picked up during binding” value in data set [2] (slope of linear regression) is 0.89 protons per mole of the formed complex. Moreover, the “increase of affinity compared to the unsubstituted lin-benzoguanine (factor)” value in data set [3] (Ki ratio) is 70. Also, in data set [3], the Ki is 58 ± 36 nM. Also, in data set [4], the “Relative proportion of TGT monomers” value was determined as 3.4% and the “effect on TGT dimer stability / monomer proportion, in words” value is given as “No effect on dimer stability”.
As for `CNc1nc2c(CCNCC3CCC(C#Cc4cccnc4)CC3)c3nc(N)[nH]c(=O)c3cc2[nH]1` (centres unmarked) [Inhibitor 4], the affinity in data set [1] (determined in this study, competitive with respect to tRNA substrate, averaged over three measurements) corresponds to a Ki of 193 ± 41 nM. For the same compound, the “precipitation upon ligand dilution in buffer” value in data set [5] is “partial precipitation; also recorded: To a lower extent, a similar phenomenon was also observed”. Also, in data set [4], the “Relative proportion of TGT monomers” value worked out at 5.6% and the “effect on TGT dimer stability / monomer proportion, in words” value is given as “small effect might be given”.
